{"source": "ChEMBL document CHEMBL1201862", "about": "“PubChem BioAssay data set” (2004)", "key": {"SUMO-activating enzyme [1]": {"biological_target": "T1, SUMO-activating enzyme (Homo sapiens, UniProt Q9UBT2)", "assay": "SUMOylation inhibitor hit validation, confirmation, SUMOylation inhibitor project, biochemical, AlphaScreen (AID 2018)", "assay_type": "functional"}, "SUMO-activating enzyme [2]": {"biological_target": "T1, SUMO-activating enzyme", "assay": "inhibitors of in vitro SUMOylation cascade, primary screen, biochemical, HTRF, uHTS (AID 2006)", "assay_type": "protein-complex assay"}, "Estrogen receptor": {"biological_target": "T2, Estrogen receptor (Homo sapiens, UniProt P03372)", "T2 sequence (P03372 whole entry)": "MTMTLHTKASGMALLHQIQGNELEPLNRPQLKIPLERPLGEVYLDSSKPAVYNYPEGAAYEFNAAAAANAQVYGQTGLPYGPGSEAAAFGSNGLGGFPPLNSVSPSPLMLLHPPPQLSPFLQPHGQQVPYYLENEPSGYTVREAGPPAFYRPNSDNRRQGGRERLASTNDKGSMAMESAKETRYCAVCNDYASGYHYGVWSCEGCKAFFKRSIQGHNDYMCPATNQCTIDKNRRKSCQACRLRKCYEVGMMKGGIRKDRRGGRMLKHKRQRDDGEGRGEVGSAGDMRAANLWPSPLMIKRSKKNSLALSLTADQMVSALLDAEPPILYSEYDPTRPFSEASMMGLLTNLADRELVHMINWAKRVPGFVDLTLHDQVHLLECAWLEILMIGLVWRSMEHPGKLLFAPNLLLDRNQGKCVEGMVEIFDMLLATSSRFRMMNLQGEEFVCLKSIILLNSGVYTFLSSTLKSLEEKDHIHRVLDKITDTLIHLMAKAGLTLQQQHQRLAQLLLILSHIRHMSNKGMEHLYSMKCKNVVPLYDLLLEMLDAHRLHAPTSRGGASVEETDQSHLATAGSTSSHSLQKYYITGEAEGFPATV"}, "[3]": {"biological_target": "Voltage-gated inwardly rectifying potassium channel KCNH2 (Homo sapiens, UniProt Q12809)", "settings": "Potency"}, "[4]": {"biological_target": "Voltage-dependent T-type calcium channel subunit alpha-1H (Homo sapiens, UniProt O95180)", "sequence (O95180 whole entry)": "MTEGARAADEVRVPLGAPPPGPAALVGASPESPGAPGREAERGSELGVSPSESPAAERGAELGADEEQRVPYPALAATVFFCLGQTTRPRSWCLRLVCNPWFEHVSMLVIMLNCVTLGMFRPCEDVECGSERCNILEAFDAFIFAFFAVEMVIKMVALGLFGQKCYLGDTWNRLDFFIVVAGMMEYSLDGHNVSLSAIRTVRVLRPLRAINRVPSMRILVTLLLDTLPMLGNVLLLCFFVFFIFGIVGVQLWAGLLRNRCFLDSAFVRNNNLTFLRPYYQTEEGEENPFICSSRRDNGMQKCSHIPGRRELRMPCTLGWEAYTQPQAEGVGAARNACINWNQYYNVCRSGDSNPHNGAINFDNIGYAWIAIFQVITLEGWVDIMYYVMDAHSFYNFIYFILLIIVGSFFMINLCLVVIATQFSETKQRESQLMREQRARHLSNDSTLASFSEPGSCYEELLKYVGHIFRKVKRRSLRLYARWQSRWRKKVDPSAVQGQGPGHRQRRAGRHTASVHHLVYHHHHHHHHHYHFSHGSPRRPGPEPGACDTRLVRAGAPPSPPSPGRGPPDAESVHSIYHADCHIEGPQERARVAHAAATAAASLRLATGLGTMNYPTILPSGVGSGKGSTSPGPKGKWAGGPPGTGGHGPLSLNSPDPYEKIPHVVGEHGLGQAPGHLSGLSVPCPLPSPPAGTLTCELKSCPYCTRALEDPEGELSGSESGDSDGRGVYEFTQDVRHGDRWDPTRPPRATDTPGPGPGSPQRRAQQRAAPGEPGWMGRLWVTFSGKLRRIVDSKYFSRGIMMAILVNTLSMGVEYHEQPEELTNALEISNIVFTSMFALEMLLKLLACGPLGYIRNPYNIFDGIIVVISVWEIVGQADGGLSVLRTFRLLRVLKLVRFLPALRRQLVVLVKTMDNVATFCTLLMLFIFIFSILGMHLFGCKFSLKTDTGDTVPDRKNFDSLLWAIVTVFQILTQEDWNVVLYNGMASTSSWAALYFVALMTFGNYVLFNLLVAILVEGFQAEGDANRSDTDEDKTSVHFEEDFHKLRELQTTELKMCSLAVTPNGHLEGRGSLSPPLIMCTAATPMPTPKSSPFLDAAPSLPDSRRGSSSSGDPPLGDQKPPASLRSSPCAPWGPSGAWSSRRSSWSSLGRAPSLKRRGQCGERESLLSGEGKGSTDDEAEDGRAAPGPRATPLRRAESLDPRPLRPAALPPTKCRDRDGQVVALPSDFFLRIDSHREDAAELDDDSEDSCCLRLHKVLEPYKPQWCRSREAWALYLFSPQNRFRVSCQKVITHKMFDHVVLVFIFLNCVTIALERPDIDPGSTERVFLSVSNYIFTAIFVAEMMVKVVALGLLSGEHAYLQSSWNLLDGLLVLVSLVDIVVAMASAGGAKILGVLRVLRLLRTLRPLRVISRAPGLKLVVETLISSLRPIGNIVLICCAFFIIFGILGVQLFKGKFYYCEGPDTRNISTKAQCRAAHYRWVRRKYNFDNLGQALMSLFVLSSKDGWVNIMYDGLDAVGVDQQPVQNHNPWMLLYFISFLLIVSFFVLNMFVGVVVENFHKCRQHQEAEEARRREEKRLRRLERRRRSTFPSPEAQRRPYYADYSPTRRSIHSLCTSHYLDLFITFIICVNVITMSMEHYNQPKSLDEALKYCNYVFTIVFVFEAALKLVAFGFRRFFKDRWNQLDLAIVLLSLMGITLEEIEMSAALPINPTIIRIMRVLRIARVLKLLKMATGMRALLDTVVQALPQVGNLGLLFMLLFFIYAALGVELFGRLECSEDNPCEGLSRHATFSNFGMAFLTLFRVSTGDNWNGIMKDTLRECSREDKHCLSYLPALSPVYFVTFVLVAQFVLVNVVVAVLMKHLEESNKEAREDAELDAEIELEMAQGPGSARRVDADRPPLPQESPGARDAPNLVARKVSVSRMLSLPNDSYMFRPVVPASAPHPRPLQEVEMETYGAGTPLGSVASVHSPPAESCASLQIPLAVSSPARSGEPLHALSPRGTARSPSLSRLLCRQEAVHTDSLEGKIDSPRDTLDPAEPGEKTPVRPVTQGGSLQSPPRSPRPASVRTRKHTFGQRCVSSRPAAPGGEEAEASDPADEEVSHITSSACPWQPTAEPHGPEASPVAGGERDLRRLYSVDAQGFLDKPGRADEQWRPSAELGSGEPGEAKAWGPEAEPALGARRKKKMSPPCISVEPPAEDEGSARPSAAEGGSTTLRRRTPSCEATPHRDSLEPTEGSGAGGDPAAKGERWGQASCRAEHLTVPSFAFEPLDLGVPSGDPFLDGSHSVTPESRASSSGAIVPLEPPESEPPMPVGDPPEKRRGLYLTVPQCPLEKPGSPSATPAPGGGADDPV", "assay_type": "functional"}, "Troponin, cardiac muscle": {"biological_target": "Troponin, cardiac muscle (Homo sapiens, UniProt P19429+P45379+P63316)", "assay": "Fluorescence-based biochemical high throughput dose response assay for activators of the calcium sensitivity of cardiac Regulated Thin Filaments (RTF). [Related pubchem assays (depositor defined):AID493008, AID493018, AID504382, AID504383]", "assay_type": "protein-complex assay"}, "[5]": {"biological_target": "T3, Lysine-specific demethylase 4C (Homo sapiens, UniProt Q9H3R0)", "T3 sequence (Q9H3R0 whole entry)": "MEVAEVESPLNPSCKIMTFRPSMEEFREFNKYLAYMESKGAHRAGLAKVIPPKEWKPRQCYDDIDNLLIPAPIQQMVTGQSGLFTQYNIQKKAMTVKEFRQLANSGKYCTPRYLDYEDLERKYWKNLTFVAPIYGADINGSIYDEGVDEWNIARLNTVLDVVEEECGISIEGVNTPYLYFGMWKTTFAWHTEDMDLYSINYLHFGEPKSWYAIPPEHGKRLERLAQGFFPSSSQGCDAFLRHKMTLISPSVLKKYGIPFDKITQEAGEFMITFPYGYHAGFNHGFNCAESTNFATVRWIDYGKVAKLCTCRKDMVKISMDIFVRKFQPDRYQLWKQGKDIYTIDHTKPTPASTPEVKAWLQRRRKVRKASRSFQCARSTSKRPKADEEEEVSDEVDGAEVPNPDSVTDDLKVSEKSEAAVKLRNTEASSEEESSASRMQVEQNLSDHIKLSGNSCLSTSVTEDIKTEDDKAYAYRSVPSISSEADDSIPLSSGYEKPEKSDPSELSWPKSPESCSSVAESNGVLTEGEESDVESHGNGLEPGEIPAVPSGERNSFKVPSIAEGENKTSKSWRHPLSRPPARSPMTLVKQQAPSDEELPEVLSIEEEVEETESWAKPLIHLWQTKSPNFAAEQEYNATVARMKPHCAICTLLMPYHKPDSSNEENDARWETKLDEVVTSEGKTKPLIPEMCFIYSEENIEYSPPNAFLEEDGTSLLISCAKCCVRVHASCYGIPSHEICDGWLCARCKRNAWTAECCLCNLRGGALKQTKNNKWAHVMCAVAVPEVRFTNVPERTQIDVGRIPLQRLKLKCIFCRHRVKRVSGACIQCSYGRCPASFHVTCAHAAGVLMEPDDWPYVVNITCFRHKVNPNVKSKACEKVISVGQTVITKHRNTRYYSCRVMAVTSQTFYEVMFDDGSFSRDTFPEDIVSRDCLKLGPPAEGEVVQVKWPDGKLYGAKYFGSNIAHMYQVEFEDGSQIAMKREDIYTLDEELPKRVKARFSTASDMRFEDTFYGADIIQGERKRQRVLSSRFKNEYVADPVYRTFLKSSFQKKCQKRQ", "assay": "GASC-1 (JMJD2C) histone demethylase inhibitors, dose response, biochemical, DELFIA europium, cherry-picked samples (AID 488835)", "assay_type": "functional"}, "[6]": {"biological_target": "T4, Short transient receptor potential channel 4 (Mus musculus, UniProt Q9QUQ5)", "T4 sequence (Q9QUQ5 whole entry)": "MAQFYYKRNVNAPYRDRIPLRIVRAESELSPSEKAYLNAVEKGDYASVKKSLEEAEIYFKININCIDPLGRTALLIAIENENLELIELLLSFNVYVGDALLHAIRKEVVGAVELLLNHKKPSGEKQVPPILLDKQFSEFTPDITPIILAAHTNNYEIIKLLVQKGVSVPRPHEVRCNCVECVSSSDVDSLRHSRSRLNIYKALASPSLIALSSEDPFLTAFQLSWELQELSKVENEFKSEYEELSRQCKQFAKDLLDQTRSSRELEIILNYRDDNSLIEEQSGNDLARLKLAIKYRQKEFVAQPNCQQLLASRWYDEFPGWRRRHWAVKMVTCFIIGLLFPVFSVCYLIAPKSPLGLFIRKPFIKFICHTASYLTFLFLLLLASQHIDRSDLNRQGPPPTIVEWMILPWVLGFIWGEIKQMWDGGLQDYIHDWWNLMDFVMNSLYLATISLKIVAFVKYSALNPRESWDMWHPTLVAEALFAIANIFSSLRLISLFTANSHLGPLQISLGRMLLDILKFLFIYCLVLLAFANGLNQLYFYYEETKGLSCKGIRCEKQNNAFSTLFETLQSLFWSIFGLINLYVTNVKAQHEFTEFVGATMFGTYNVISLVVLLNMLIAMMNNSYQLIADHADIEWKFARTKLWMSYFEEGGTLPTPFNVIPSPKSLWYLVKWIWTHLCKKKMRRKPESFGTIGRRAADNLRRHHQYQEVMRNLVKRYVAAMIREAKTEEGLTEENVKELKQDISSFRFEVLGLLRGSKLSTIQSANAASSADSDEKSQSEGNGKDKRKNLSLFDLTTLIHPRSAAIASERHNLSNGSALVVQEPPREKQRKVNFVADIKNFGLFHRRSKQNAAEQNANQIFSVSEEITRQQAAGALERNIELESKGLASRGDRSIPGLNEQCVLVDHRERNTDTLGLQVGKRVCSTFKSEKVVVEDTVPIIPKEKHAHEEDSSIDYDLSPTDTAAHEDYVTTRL", "assay": "mouse TRPC4 channel activators, dose response, cell-based, HEK293 TRPC4/mu-opioid, Fluo-4 calcium (AID 434937)", "assay_type": "functional"}, "[7]": {"assay": "inhibitors of firefly luciferase expression or activity, dose response, H4 neuroglioma cells, luminescence (AID 1990)", "assay_type": "functional, cell-based"}, "[8]": {"assay": "Luminescence Cell-Based Dose Response HTS to Identify Inhibitors of 5'UTR Stem-Loop Driven Prion Protein mRNA Translation in H4 Neuroglioblastoma Cells. [Related pubchem assays: 1827 (Project Summary), 1813 (Primary HTS)]", "assay_type": "functional"}, "[9]": {"assay": "inhibitors of SNCA 5'UTR-driven reporter translation, confirmation, H4 neuroglioma cells, luminescence (AID 1988)", "assay_type": "functional, cell-based"}, "[10]": {"assay": "inhibitors of intracellular T. cruzi replication, confirmation, NIH3T3 host cells, beta-gal luminescence (AID 2044);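 note: luminescent beta-galactosidase reporter signal from transgenic T. cruzi replicating inside host cells; inhibitors lower the luminescence signal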", "assay_type": "functional, cell-based"}, "[11]": {"assay": "cytotoxicity toward NIH3T3 fibroblasts, dose response, counter-screen, cell-based, ATP luminescence, mouse fibroblasts (AID 2010);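 note: cells exposed to compound for about 90 hours before reading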", "assay_type": "functional"}, "[12]": {"assay": "THP-1 cell cytotoxicity, dose response, cytotoxicity control for non-replicating M. tuberculosis project (AID 489025)", "assay_type": "functional"}, "[13]": {"assay": "HepG2 cell cytotoxicity, dose response, cytotoxicity control for non-replicating M. tuberculosis project (AID 489018)", "assay_type": "functional", "settings": "Mycobacterium tuberculosis"}, "[14]": {"assay": "Vero E6 cell cytotoxicity, dose response, cytotoxicity control for non-replicating M. tuberculosis project, secondary assay (AID 492998)", "assay_type": "functional, VeroE6", "settings": "Vero C1008"}, "[15]": {"assay": "cytotoxicity in HEK-293T cells, dose response, cytotoxicity control for BCR NF-kB inhibitor project, luminescence, B-cell screen hits (AID 489021);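 note: cells exposed to compound for about 14 hours before viability readout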", "assay_type": "functional, cell-based"}, "cells": {"assay": "cells", "assay_type": "functional"}, "Fatty acid synthase [16]": {"biological_target": "T5, Fatty acid synthase (Homo sapiens, UniProt P49327)", "T5 sequence (P49327 whole entry, the tested form may be a part)": "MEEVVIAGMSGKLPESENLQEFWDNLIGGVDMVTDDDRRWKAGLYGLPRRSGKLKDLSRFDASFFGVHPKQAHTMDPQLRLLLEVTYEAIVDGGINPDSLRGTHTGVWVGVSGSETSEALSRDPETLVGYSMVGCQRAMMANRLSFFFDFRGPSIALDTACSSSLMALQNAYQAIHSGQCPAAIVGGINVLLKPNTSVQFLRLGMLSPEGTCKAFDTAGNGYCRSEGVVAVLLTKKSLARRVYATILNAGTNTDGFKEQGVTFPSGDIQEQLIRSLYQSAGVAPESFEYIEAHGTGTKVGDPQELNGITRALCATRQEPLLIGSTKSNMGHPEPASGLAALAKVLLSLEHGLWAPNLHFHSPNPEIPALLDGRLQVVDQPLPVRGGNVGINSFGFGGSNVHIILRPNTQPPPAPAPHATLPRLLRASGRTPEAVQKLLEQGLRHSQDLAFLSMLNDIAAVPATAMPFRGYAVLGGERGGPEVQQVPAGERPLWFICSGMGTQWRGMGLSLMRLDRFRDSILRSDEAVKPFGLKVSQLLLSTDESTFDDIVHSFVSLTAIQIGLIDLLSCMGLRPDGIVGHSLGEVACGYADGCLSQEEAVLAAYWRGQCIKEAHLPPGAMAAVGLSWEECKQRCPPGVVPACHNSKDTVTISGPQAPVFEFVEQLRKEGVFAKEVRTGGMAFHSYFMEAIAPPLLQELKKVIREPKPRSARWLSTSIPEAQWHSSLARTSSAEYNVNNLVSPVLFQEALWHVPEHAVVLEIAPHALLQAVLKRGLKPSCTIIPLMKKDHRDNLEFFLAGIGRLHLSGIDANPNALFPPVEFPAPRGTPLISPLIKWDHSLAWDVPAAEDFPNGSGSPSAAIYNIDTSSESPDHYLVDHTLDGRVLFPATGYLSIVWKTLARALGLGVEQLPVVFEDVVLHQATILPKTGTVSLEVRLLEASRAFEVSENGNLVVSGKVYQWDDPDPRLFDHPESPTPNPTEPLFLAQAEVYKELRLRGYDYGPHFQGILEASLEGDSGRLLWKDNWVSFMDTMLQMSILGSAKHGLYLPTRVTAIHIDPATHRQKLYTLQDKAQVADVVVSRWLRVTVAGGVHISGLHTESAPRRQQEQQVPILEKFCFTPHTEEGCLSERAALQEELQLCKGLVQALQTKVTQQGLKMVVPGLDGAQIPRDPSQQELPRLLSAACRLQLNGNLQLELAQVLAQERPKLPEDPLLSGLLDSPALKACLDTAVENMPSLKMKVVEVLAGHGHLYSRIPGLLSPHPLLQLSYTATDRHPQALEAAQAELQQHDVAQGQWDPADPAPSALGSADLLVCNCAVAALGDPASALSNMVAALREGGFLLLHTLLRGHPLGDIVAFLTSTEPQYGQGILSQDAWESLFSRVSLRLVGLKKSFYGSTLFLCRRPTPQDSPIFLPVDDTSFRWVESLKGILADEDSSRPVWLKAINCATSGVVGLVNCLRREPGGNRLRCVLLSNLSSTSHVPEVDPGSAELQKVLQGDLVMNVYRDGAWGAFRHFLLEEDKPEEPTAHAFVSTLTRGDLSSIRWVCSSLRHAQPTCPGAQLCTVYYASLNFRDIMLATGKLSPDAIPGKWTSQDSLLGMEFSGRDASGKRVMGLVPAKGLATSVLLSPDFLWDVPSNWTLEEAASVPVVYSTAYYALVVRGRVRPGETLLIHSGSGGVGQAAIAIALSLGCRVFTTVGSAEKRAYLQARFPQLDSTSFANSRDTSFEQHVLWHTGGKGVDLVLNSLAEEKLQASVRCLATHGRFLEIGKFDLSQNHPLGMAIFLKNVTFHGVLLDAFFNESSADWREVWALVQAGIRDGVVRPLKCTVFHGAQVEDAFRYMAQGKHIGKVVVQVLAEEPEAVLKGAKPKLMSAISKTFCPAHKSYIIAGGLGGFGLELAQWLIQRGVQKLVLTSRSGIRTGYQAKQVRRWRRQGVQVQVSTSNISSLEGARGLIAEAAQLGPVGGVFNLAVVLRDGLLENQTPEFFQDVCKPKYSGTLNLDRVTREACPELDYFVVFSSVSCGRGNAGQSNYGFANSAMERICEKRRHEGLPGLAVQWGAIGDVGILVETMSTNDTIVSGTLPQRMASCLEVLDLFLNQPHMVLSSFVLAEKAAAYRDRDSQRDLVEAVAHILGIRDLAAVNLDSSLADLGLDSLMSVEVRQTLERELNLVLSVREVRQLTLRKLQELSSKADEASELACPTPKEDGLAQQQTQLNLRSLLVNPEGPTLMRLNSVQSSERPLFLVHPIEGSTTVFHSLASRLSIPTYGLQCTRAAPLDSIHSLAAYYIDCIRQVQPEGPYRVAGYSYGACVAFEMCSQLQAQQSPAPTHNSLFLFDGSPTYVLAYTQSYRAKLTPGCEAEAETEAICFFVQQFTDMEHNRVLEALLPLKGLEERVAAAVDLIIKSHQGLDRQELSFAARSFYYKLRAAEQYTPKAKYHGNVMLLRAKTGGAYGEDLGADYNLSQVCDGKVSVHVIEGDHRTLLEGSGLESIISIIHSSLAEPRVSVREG", "assay": "FAS thioesterase domain inhibitors, dose response, biochemical, endpoint fluorescence intensity, uHTS hits (AID 624327);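 note: fluorescence from hydrolysis of an O-methyl fluorescein acyl ester substrate by the enzyme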", "assay_type": "functional"}, "Fatty acid synthase [17]": {"biological_target": "T5, Fatty acid synthase", "assay": "FAS thioesterase domain inhibitors, dose response, biochemical, kinetic fluorescence intensity (AID 624326);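 note: rate of fluorescence rise from hydrolysis of a fluorogenic O-methyl fluorescein ester substrate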", "assay_type": "functional"}}, "note": "Active and inactive are the calls of the source.", "data": [{"smiles": "Cc1ccc(NC(=O)Cn2nc(C(=O)Nc3ccc(C)cc3)ccc2=O)cc1", "values": [{"measurement": "IC50", "setting": "SUMO-activating enzyme [1]", "result": "30.8 µM (active)"}, {"measurement": "IC50", "setting": "SUMO-activating enzyme [2]", "result": "18.3 µM (active)"}]}, {"smiles": "CC1Cc2ccccc2N1C(=O)CSc1nnc(NC(=O)Cc2cccs2)s1", "note": "(stereo not drawn)", "values": [{"measurement": "IC50", "setting": "Estrogen receptor", "result": "34 µM (not active)"}]}, {"smiles": "CC(C)N=C=NC(C)C", "values": [{"measurement": "AC50", "setting": "[3]", "result": "35.5 µM (inconclusive)"}]}, {"smiles": "Cc1cccc(C(=O)N2CCN(c3ccc(C(F)(F)F)cn3)CC2)c1C", "values": [{"measurement": "EC50", "setting": "[4]", "result": "9.85 µM (active)"}]}, {"smiles": "Cc1ccc(-c2noc(CCC(=O)N(C)c3ccccc3C)n2)cc1", "values": [{"measurement": "EC50", "setting": "[4]", "result": "4.56 µM (active)"}]}, {"smiles": "O=C(CN1CCN(c2ccccc2F)CC1)Nc1cccnc1Cl", "values": [{"measurement": "EC50", "setting": "Troponin, cardiac muscle", "result": "> 71.5 µM (inactive)"}]}, {"smiles": "CCc1ccccc1N(C)C(=O)CCc1nc(-c2ccc(C)cc2)no1", "values": [{"measurement": "EC50", "setting": "[4]", "result": "5.38 µM (active)"}]}, {"smiles": "COc1ccc(CSc2nnc(Cc3sc(-c4ccccc4)nc3-c3ccccc3)o2)cc1", "values": [{"measurement": "EC50", "setting": "[4]", "result": "5.33 µM (active)"}]}, {"smiles": "Cc1ccc(-c2csc3nc4cc(C(=O)NC5CCC(O)CC5)ccc4c(=O)n23)cc1", "note": "(stereo not drawn)", "values": [{"measurement": "AC50", "setting": "[5]", "result": "3.96 µM (active)"}]}, {"smiles": "CC1(c2ccc(Cl)cc2Cl)OCC(Cn2ccnc2)O1", "note": "(stereo not drawn)", "values": [{"measurement": "EC50", "setting": "[6]", "result": "2.37 µM (active)"}]}, {"smiles": "O=C(Nc1ccccc1C(=O)Nc1nnc(C(F)(F)F)s1)c1ccccc1", "values": [{"measurement": "EC50", "setting": "[7]", "result": "> 120 µM (not active)"}, {"measurement": "EC50", "setting": "[8]", "result": "> 120 µM (not active)"}, {"measurement": "EC50", "setting": "[9]", "result": "19.3 µM (active)"}, {"measurement": "EC50", "setting": "[10]", "result": "0.927 µM (active)"}, {"measurement": "EC50", "setting": "[11]", "result": "2.53 µM (active)"}, {"measurement": "CC50", "setting": "[12]", "result": "3.58 µM (active)"}, {"measurement": "CC50", "setting": "[13]", "result": "3.9 µM (active)"}, {"measurement": "CC50", "setting": "[14]", "result": "> 20 µM (active)"}, {"measurement": "IC50", "setting": "[15]", "result": "46.2 µM (inactive)"}, {"measurement": "IC50", "setting": "cells", "result": "15.3 µM (active)"}, {"measurement": "IC50", "setting": "Fatty acid synthase [16]", "result": "80 µM (inactive)"}, {"measurement": "IC50", "setting": "Fatty acid synthase [17]", "result": "23.5 µM (inactive)"}]}]}
